The values below come from publication PMC2771219 (Journal of molecular biology, 2009).

In this assay the target is UDP-galactopyranose mutase (UGM) (Klebsiella pneumoniae, UniProt Q48485, R384G). Kind of assay: fluorescence polarization. In kind it is binding. (Polarisation of emitted light reports the rotation of a fluorescent probe.)

In general, Kd refers to a measure of binding affinity in units of concentration. Low readings indicate higher affinity, high ones lower affinity. Substance UDP-fluorescein yielded an equilibrium dissociation constant (Kd) of 0.09 µM. In other words, the double-digit nanomolar range.
